Values quoted from earlier work as cited in patent US20170326139A1, “COMBINATION THERAPY FOR MALE SEXUAL DYSFUNCTION” (priority 2016, published 2017).
Where two headings read alike, the source gives them in different places.

Key:
premature ejaculation [1] = test system: premature ejaculation
premature ejaculation [2] = details: in vivo
premature ejaculation [3] = test system: premature ejaculation; remark: listed apart in the source

## CN(C)CCCN1c2ccccc2CCc2ccc(Cl)cc21 [clomipramine]
Premature ejaculation [1]; inhaled (nasal) 4 mg or 5 mg on-demand, e.g. one hour pre-coitus
  effect in treating PE: effective in treating PE
Premature ejaculation [1]; orally administered daily at 10 to 50 mg per day
  effect on IELT: effectively increase IELT

## CNCC[C@H](Oc1cccc2ccccc12)c1cccs1 [duloxetine]
Premature ejaculation [2]
  effect on IELT: some positive effect on IELT

## CCCc1nn(C)c2c(=O)[nH]c(-c3cc(S(=O)(=O)N4CCN(C)CC4)ccc3OCC)nc12 [sildenafil]
Premature ejaculation [3]; sildenafil 50 mg pre-coitus administered alone
  effect on PE versus placebo: no better than placebo
Premature ejaculation [3]; sildenafil 50 mg pre-coitus combined with behavioral psychotherapy
  IELT: about 3.63 minutes
